Reference: patent US6897237B2, “MMP-12 inhibitors” (Shionogi & Co. Ltd., priority 2000, dated 2005)

Assays:
Type in all cases: biochemical
Conditions in all cases: substrate MOCAc-Pro-Leu-Gly-Leu-A2Pr(DNP)-Ala-Arg-NH2
[1] = target: T1, MMP-13 catalytic domain (Homo sapiens, UniProt P45452); test: Assay for inhibitory activities on MMPs (fluorogenic peptide substrate): MMP-13
T1 construct: catalytic domain (^104Tyr˜^267Gly); His-tag; enterokinase digestion-site; made in house; host or cells: Escherichia coli
Description: (§1) In regard to MMP-13, mRNA was prepared from carcinoma cell SW1353 derived from human cartilage stimulate by IL-1, TNF and catalytic domain (^104Tyr˜^267Gly) was amplified with RT-PCR. This was cloned in Escherichia coli expression vector pTrc99AHE inserted with His-tag sequence and enterokinase digestion-site, induced and expressed by IPTG (Isopropyl-β-D-thiogalactopyranoside) and expressed in a insoluble fraction. Isolation of MMP-1.3 from a insoluble fraction was carried out by dissolving in modifier (6M urea) by a usual method and purification with metal chelate chromatography (Ni Chelateing Sepharose). And then removing modifier (6M urea) with dialyze and refolding of the enzyme spontaneously gave activated MMP-13.
(§2) The enzymatic activity on MMPs was analyzed by the method described in “C. Graham Knight, Frances Willenbrock and Gillian Murphy: A novel coumarin-labelled peptide for sensitive continuous assays of the matrix metalloproteinases: FEBS LETT., 296, (1992), 263-266”. The substrate: MOCAc-Pro-Leu-Gly-Leu-A2Pr(DNP)-Ala-Arg-NH2 was purchased from Peptide Institute, Inc., Osaka, Japan. The measurement of the inhibitory activities (IC50) was carried out by the following four methods;
(§3) (A) Reaction with substrate, enzyme (MMPs) and inhibitor
(§4) (B) Reaction with substrate and inhibitor, without enzyme
(§5) (C) Reaction with substrate and enzyme (MMPs), without inhibitor
(§6) (D) Reaction with substrate only
(§7) IC50 values were calculated by using the following formula and each fluorescence values of above four methods (A to D).
(§8) % inhibition={1−(A−B)/(C−D)}×100
(§9) IC50 means the concentration required to inhibit 50% of the enzyme activity.

[2] = target: T2, MMP-8 catalytic domain (Homo sapiens, UniProt P22894); test: Assay for inhibitory activities on MMPs (fluorogenic peptide substrate): MMP-8
T2 construct: catalytic domain (^99Phe˜^262Gly); His-tag; enterokinase digestion-site; made in house; host or cells: Escherichia coli
From the text: In regard to MMP-8, catalytic domain (^99Phe˜^262Gly) was amplified with PCR using commercial available Human Bone Marrow cDNA. This was cloned in Escherichia. coli expression vector pTrc99AHE inserted with His-tag sequence and enterokinase digestion-site, induced and expressed by IPTG (Isopropyl-β-D-thiogalactopyranoside) and expressed in a insoluble fraction (Than F. Ho, M. Walid Qoronfleh, Robert C. Wahl, Trica A. Pulvino, Karen J. Vavra, Joe Falvo, Tracey M. Banks, Patricia G. Brake and Richard B. Ciccarelli: Gene expression, purification and characterization of recombinant human neutrophil collagenase. Gene 146, (1994) 297-301, Prepared by the a improved method of this material). Isolation of MMP-8 from insoluble fraction was carried out by dissolving in modifier (6M urea) by a usual method and purification with metal chelate chromatography. And then removing modifier (6M urea) with dialysis and refolding of the enzyme spontaneously gave activated MMP-8.
as §2, §3, §4, §5, §6, §7, §8, §9

[3] = target: T3, MMP-2 (Homo sapiens, UniProt P08253); test: Assay for inhibitory activities on MMPs (fluorogenic peptide substrate): MMP-2
T3 construct: purchased Calbiochem-Novabiochem International, Inc
T3 sequence (P08253 110-660): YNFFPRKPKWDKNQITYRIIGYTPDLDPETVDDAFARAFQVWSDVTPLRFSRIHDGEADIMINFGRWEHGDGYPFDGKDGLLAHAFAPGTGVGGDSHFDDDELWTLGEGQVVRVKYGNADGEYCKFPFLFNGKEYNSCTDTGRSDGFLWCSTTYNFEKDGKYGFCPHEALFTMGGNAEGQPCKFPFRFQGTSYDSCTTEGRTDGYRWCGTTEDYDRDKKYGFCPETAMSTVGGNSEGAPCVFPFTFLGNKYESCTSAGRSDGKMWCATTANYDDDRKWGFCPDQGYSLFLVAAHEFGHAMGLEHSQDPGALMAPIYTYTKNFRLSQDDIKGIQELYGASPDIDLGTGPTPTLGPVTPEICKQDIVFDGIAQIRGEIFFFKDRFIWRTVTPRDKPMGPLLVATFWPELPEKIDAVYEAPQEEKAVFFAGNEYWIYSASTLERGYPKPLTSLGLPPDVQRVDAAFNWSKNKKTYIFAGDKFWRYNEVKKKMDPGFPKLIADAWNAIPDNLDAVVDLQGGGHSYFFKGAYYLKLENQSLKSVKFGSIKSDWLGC
Description: MMP-2 was purchased from Calbiochem-Novabiochem International, Inc.
as §2, §3, §4, §5, §6, §7, §8, §9

[4] = target: T4, MMP-1 (Homo sapiens, UniProt P03956); test: Assay for inhibitory activities on MMPs (fluorogenic peptide substrate): MMP-1
T4 construct: purchased Yagai
T4 sequence (P03956 100-469): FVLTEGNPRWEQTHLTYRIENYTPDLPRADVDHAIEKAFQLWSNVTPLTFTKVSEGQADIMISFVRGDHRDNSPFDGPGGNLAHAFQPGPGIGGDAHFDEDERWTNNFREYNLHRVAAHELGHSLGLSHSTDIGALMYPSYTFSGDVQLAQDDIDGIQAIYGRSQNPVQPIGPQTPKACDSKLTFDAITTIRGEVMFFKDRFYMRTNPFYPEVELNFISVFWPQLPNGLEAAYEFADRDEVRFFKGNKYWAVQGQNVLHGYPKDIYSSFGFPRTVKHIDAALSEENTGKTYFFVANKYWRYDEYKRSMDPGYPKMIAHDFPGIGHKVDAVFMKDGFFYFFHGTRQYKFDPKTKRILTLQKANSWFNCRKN
Description: MMP-1 was purchased from Yagai.
as §2, §3, §4, §5, §6, §7, §8, §9

[5] = target: T5, MMP-9 (Homo sapiens, UniProt P14780); test: Assay for inhibitory activities on MMPs (fluorogenic peptide substrate): MMP-9
T5 construct: endogenous in cells; host or cells: HT1080 human fibrosarcoma cells, TPA-stimulated; purified in house from conditioned medium
From the text: MMP-9 was isolated and purified by using a combination of procedures described in previous reports as follows. Yasunori Okada, Yukio Gonoji, Katsumi Naka, Katsuro Tomita, Isao Nakanishi, Kazushi Iwata, Kyoko Yamashita, and Taro Hayakawa: Matrix metalloproteinase 9 (92-kDa gelatinase/type IV collagenase) from HT1080 human fibrosarcoma cells. Purification and activation of the precursor and enzymic properties. J. Biol. Chem., 267 (1.992) 21712-21719. Yasunori Okada, Tatsuhisa Morodomi, Jan J, Enghild, Ko Suzuki, Atsushi Yasui, Isao Nakanishi, Guy Salvesen and Hideaki Nagase: Matrix metalloproteinase 2 from human rheumatoid synovial fibroblasts. Purification and activation of the precursor and enzymic properties. Eur. J. Biochem. 194 (1990) 721-730. Robin V Ward, Rosalind M Hembry, John J Reynolds and Gillian Murphy: The purification of tissue inhibitor of metalloproteinase-2 from its 72 kDa progelatinase complex. Biochem. J. 278 (1991) 179-187.
Briefly, human fibrosarcoma ATCC HT1080 cell line was cultured to confluent in Dulbecco's Modified Medium (DMEM) containing 10% fetal-calf serum at 37° C. for 48 hours. Subsequently, the medium of confluent culture was changed to serum-free DMEM medium. To obtain MMP-9, Phorbol-12-myristate-13-acetate (TPA) must be added to this serum-free DMEM medium at a concentration of 50 ng/ml. The TPA treated medium was centrifuged at 3000 rpm for 15 min and the supernatant was concentrated to 450 ml by a Toyo-Roshi UP-20 apparatus with an ultrafiltration membrane. Then, proMMP-9 in this concentrated solution was purified by using columns of Gelatin-Sepharose and Concanavalin A-Sepharose. The pool containing proMMP-9 was dialyzed, concentrated (Toyo-Roshi UP-20) and applied to columns of Sephacryl S-200 and Green A matrix for the separation from TIMPs. The obtained proMMP-9 fraction was activated by TPCK-Trypsin (final conc. […] reaction mix.).
as §2, §3, §4, §5, §6, §7, §8, §9

[6] = target: T6, MMP-12 catalytic domain (Homo sapiens, UniProt P39900); test: Assay for inhibitory activities on MMPs (fluorogenic peptide substrate): MMP-12
T6 construct: catalytic domain(^100Phe˜^263Gly); His-tag; enterokinase digestion-site; made in house; host or cells: Escherichia coli
Description: as §1, with “MMP-12,” for “MMP-13, mRNA was prepared from carcinoma cell SW1353 derived from human cartilage stimulate by IL-1, TNF and”, “domain(^100Phe˜^263Gly)” for “domain (^104Tyr˜^267Gly)”, “RT-PCR from Human Placenta Total RNA.” for “RT-PCR.”, “MMP-12” for “MMP-1.3”, “dialysis” for “dialyze”, “MMP-12.” for “MMP-13.”
as §2, §3, §4, §5, §6, §7, §8, §9

T5 sequence (P14780 107-707 limits assumed): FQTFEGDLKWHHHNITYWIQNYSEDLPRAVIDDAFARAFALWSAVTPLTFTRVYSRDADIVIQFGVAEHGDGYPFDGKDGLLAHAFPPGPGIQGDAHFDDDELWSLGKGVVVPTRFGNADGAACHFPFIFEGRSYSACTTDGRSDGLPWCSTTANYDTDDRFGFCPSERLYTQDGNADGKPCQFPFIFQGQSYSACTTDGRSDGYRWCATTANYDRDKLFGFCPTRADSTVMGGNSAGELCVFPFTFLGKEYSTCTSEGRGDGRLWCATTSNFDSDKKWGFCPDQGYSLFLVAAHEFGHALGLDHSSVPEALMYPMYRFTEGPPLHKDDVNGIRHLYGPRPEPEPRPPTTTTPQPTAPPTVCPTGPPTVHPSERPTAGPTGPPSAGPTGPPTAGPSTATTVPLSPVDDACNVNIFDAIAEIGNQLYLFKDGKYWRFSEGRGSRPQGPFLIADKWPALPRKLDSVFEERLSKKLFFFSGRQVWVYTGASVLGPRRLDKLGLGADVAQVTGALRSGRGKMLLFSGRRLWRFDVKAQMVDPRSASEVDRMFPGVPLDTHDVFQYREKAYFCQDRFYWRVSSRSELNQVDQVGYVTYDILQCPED
T2 sequence (P22894 99-262): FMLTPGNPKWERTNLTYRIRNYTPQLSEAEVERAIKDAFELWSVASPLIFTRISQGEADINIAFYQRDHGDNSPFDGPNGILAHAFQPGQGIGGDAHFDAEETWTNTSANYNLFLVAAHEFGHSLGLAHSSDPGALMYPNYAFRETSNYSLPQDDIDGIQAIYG
T6 sequence (P39900 100-263): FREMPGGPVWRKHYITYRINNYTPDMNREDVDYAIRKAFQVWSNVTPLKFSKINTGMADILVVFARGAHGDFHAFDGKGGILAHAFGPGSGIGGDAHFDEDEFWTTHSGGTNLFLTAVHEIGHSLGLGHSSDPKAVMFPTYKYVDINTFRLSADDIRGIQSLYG

SMILES | IC50 [1] [nM] | IC50 [2] [nM] | IC50 [3] [nM] | IC50 [4] [µM] | IC50 [5] [nM] | IC50 [6] [nM]
O=C(O)[C@@H](Cc1ccccc1)NS(=O)(=O)c1ccc(C#Cc2ccc3ccccc3c2)cc1 [Compound A-2] | > 10000 | > 10000 | > 10000 | > 10 | > 10000 | 16
O=C(O)[C@H](Cc1ccccc1)NS(=O)(=O)c1ccc(C#Cc2ccc3ccccc3c2)cc1 [Compound A-3] | > 10000 | > 10000 | > 10000 | > 10 | > 10000 | 21
CC(C)[C@@H](NS(=O)(=O)c1ccc(C#Cc2ccc3ccccc3c2)cc1)C(=O)O [Compound A-5] | 340 | 1060 | 110 | > 10 | 330 | 14
CC(C)[C@H](NS(=O)(=O)c1ccc(C#Cc2ccc3ccccc3c2)cc1)C(=O)O [Compound A-6] | – | – | – | > 10 | – | –
C[C@H](NS(=O)(=O)c1ccc(C#Cc2ccc3ccccc3c2)cc1)C(=O)O [Compound A-8] | 2770 | 2440 | 570 | > 10 | 3280 | 16
O=C(O)CNS(=O)(=O)c1ccc(C#Cc2ccc3ccccc3c2)cc1 [Compound A-9] | 2880 | > 10000 | 250 | > 10 | 1800 | 69
CC(C)C[C@@H](NS(=O)(=O)c1ccc(C#Cc2ccc3ccccc3c2)cc1)C(=O)O [Compound A-10] | 1550 | 4380 | 370 | > 10 | 1440 | 58
CC(C)C[C@H](NS(=O)(=O)c1ccc(C#Cc2ccc3ccccc3c2)cc1)C(=O)O [Compound A-11] | 460 | 580 | 370 | > 10 | 1270 | 5.9
O=C(O)[C@H](NS(=O)(=O)c1ccc(C#Cc2ccc3ccccc3c2)cc1)c1ccc(O)cc1 [Compound A-12] | 1140 | 3630 | 370 | > 10 | 1790 | 35
O=C(O)[C@H](Cc1c[nH]c2ccccc12)NS(=O)(=O)c1ccc(C#Cc2ccc3ccccc3c2)cc1 [Compound A-15] | 890 | > 10000 | 460 | > 10 | 900 | 32
O=C(O)[C@H](Cc1ccccc1)NS(=O)(=O)c1ccc(C#Cc2ccc3c(c2)OCO3)cc1 [Compound A-22] | 37 | 10 | 13 | > 10 | 300 | 7.9

Second part, the compound after the results:

IC50 [1] [nM] | IC50 [2] [nM] | IC50 [3] [nM] | IC50 [4] [µM] | IC50 [5] [nM] | IC50 [6] [nM] | SMILES
> 10000 | > 10000 | 820 | > 10 | > 10000 | 42 | O=C(O)[C@@H](Cc1ccccc1)NS(=O)(=O)c1ccc(C#Cc2ccc3ccccc3c2)s1 [Compound B-1]
> 10000 | > 10000 | > 10000 | > 10 | > 10000 | 240 | O=C(O)[C@H](Cc1ccccc1)NS(=O)(=O)c1ccc(C#Cc2ccc3ccccc3c2)s1 [Compound B-2]
> 10000 | 1400 | – | > 10 | 750 | 16 | O=C(O)[C@@H](Cc1c[nH]c2ccccc12)NS(=O)(=O)c1ccc(C#Cc2ccc3ccccc3c2)s1 [Compound B-3]
640 | 540 | 240 | > 10 | 530 | 11 | CC(C)[C@@H](NS(=O)(=O)c1ccc(C#Cc2ccc3ccccc3c2)s1)C(=O)O [Compound B-4]
6900 | 2340 | 2230 | > 10 | 3270 | 82 | CC(C)[C@H](NS(=O)(=O)c1ccc(C#Cc2ccc3ccccc3c2)s1)C(=O)O [Compound B-5]
> 10000 | 7790 | 2030 | > 10 | 6310 | 160 | C[C@H](NS(=O)(=O)c1ccc(C#Cc2ccc3ccccc3c2)s1)C(=O)O [Compound B-7]
2300 | 2650 | 1120 | > 10 | 2110 | 48 | O=C(O)[C@H](NS(=O)(=O)c1ccc(C#Cc2ccc3ccccc3c2)s1)c1ccc(O)cc1 [Compound B-8]
